Consider one compound from patent publication US20100210682A1, “Repeated Dosing of TRPV1 Antagonists” (ABBOTT LABORATORIES, priority 2009, published 2010).

In data set [1] the test system is inflammatory thermal hyperalgesia induced by intraplantar administration of CFA. As to the kind of experiment: Inflammatory pain model in rats (CFA, thermal hyperalgesia). The format is in vivo. As to conditions: po; rat, p.o., acute dosing; read-out: ED50, reversal of inflammatory thermal hyperalgesia induced by CFA. The method, then: The response to acute thermal stimulation was determined using a commercially available paw thermal stimulator (UARDG, University of California, San Diego, Calif.). Rats were placed individually in Plexiglass cubicles mounted on a glass surface maintained at 30° C., and allowed a 30 min habituation period. A thermal stimulus, in the form of radiant heat emitted from a focused projection bulb, was then applied to the plantar surface of each hind paw. In each test session, each rat was tested in three sequential trials at approximately 5 min intervals. Paw withdrawal latencies (PWLs) were calculated as the mean of the two shortest latencies. An assay cut-off was set at 20.5 s. Unilateral inflammation was induced by injecting 150 μL of a 50% solution of complete Freund's adjuvant (CFA) (Sigma, St. Louis, Mo.) in physiological saline into the plantar surface of the right hind paw of the rat. The hyperalgesia to thermal stimulation was determined 2 days following CFA injection using the same apparatus as described above for the noxious acute thermal assay. Compound A was dissolved in 100% polyethylene glycol (PEG 400) for oral administration in a 2 mL/kg injection volume. Compounds B, C, and D were dissolved in 10% ethanol, 20% Tween 80 and 70% polyethylene glycol-400 for oral administration in a 2 mL/kg injection volume. […]

In data set [2] the test system is MIA-induced osteoarthritic rats. Description: Osteoarthritic pain model in rats (MIA), hind limb grip force. The format is in vivo, rat. Conditions: for ED50: po, p.o., acute dosing. On the procedure: Unilateral knee joint osteoarthritis was induced in the rats by a single intraarticular (i.a.) injection of sodium monoiodoacetate (MIA) (Sigma, St. Louis, Mo.) (3 mg in 0.05 mL sterile isotonic saline) into the joint cavity using a 26 G needle under light (2-4%) halothane (Halocarbon Laboratories, River Edge, N.J.) anesthesia [Bove S E, Calcaterra S L, Brooker R M, Huber C M, Guzman R E, Juneau P L, et al. Weight bearing as a measure of disease progression and efficacy of anti-inflammatory compounds in a model of monosodium iodoacetate-induced osteoarthritis. Osteoarthritis Cartilage 2003; 11:821-30]. Following injection, the animals were allowed to recover from the effects of anesthesia (usually 5-10 min) before returning them to their home cages.
MIA-induced nociception can be assessed by measuring differences in weight bearing (WBD) or decrease in grip force (GF) several days to weeks following MIA injection [Bove S E, Calcaterra S L, Brooker R M, Huber C M, Guzman R E, Juneau P L, et al. Weight bearing as a measure of disease progression and efficacy of anti-inflammatory compounds in a model of monosodium iodoacetate-induced osteoarthritis. Osteoarthritis Cartilage 2003; 11:821-30; Fernihough J, Gentry C, Malcangio M, Fox A, Rediske J, Pellas T, et al. Pain related behaviour in two models of osteoarthritis in the rat knee. Pain 2004; 112:83-93].
In addition to weight-bearing differences, grip strength was also assessed in osteoarthritic rats approximately 21 days after MIA injection. Measurements of peak hind limb grip force were conducted by recording the maximum compressive force exerted on the hind limb strain gauge setup, in a commercially available grip force measurement system (Columbus Instruments, Columbus, Ohio). During testing, each rat was gently restrained by grasping around its rib cage and then allowed to grasp the wire mesh frame (10-12 cm^2) attached to the strain gauge. The experimenter then moved the animal in a rostral-to-caudal direction until the grip was broken. Each rat was sequentially tested twice at an approximately 2 min interval to obtain a raw mean grip force […]. These raw mean grip force data were in turn converted to a maximum hind limb compressive force (CFmax) (gram force)/kg body weight for each animal. A group of age-matched naïve animals was added to each experiment and the data obtained from the different dose groups for the compound being tested were compared to the naïve group.
Compound A was dissolved in 100% polyethylene glycol (PEG 400) for oral administration in a 2 mL/kg injection volume. Compounds B, C, and D were dissolved in 10% ethanol, 20% Tween 80 and 70% polyethylene glycol-400 for oral administration in a 2 mL/kg injection volume. All compounds were dosed orally (p.o.) 60 minutes before behavioral testing.
(§1) In the osteoarthritic pain model, animals were dosed twice-daily for 12 days using a dose that was non-efficacious following a single administration (e.g. 3 μmol/kg p.o. for Compound A). The animals were tested 1 hour after acute dosing (p.o.) and on day 12, 1 hour after oral dosing with either vehicle or the test compound.
The analgesic responses were shown as % effect relative to the healthy, untreated rats (naïve group).

The nature of data set [3]: Plasma levels in osteoarthritic rats after acute and repeated dosing. The data set is classed as in vivo, rat. Conditions: derived from modeling of PK/PD data from acute and chronic dosing studies. The method, then:
as §1

Converted amounts (≈) assume the structure as drawn. Like-named read-outs stand apart in the source and are kept apart here. Marks after values point to notes of the source that are not given here.

As a reminder, the EC50 is the concentration that produces a half-maximal response. `CC(C)(C)c1ccc2c(c1)CC[C@H]2NC(=O)Nc1cccc2[nH]ncc12` [Compound A, N-[(1R)-5-tert-butyl-2,3-dihydro-1H-inden-1-yl]-N′-1H-indazol-4-ylurea]: the ED50 in data set [1] stood at 10 µmol/kg; in data set [2] (Rattus norvegicus, grip force, MIA-induced osteoarthritic rats, read-out: Acute ED50 (μmol/kg; 95% Cl)), 8 µmol/kg; in data set [2] (480 h, rat, 20 days following MIA injection, read-out: ED50, reversal of decrease in grip force) it was 10 µmol/kg. In data set [2] (grip force, 3 μmol/kg p.o. BID 12 days, relative to naïve group), the “% Efficacy at Reduced Dose, Chronic (BID, 12 days)” value is 62%. Further, in data set [2] (grip force, 3 μmol/kg p.o., 1 hour after acute dosing, relative to naïve group), the “% Efficacy at Reduced Dose, Acute” value stood at 20%. In addition, the “analgesic effects following repeated dosing vs acute dosing” value in data set [2] (grip force, BID 12 days, reduced dose) is listed as “significantly increased”. Further, the “Plasma Levels, Chronic” value in data set [3] (3 μmol/kg BID 12 days) is 17** at 3 μmol/kg ng/mL. The EC50 in data set [3] (Rattus norvegicus, osteoarthritic rats) worked out at 0.085 µg/mL (≈ 0.244 µM).
